Here are results for five compounds from patent US12611438B2, “Antiviral composition comprising a nucleolin-binding peptide” (ANYGEN CO., LTD., priority 2021, dated 2026).

A value given as a limit tells only on which side of the number the result lay.

As a reminder, the IC50 is the concentration needed to halve the response being measured. Usually Cmax stands for the maximum level reached in the sampled fluid or tissue. For orientation: Tmax means the time at which the peak concentration occurs. The half-life is the time in which the quantity being followed falls by half. One may read the AUC as concentration integrated over time.

One data set in a line: in vitro. The note with it: African green monkey.
The test system of a further data set is SARS-COV-2. In words: microbe, parasite or virus in culture. The following applies: Severe acute respiratory syndrome coronavirus 2, Vero C1008, 24 h.
For a further data set, the system named is MDA-MB-231. In words: OBOC bead whole-cell binding assay. The note with it: peptide on OBOC beads, cells at 10^6 cells/ml.
Another data set concerns MCF-10A, CCD-18Co. Description: Bead whole-cell binding assay, normal cell lines. The following applies: cell growth bead analysis.
The nature of another data set: in vivo. The note with it: C57BL/6, mouse, serum, 2 mg/kg.
The conditions of data set [1]: 2 mg/kg, tail vein, C57BL/6 mice.
Experimental: (§1) In order to determine whether or not the stability of the peptide is enhanced, the in vivo half-life of the peptide was analyzed. […] The absorbance was measured at a wavelength of 450 nm using a VersaMax ELISA plate reader (Molecular Devices) and pharmacokinetics were analyzed with the phoenix WinNonlin 8.1 (Pharsight Corporation, Mountain View, CA, USA) program.

Experimental for MCF-10A, CCD-18Co: (§2) Before screening, beads were extensively washed with double distilled water and phosphate buffered saline (PBS; Welgene Inc., Republic of Korea). Cancer cells and normal cells were separated from the culture dish using trypsin/EDTA (Gibco) and washed with the corresponding culture medium. The cells were resuspended at 10^6 cells/ml and cultured while shaking (60 rpm) in a 37° C. humidified CO2 incubator with OBOC beads in a Petri dish. Beads bound by cells observed with the microscope had the shape of rosettes having central beads covered with one or more cell layers. Under an inverted microscope, positive beads were picked out with a pipette, and treated with guanidine-HCL (8M, 20 minutes) to remove cells and proteins from the bead surface, and secondary screening was performed with normal breast epithelial cells to detect false positive binding. Peptide sequencing was performed by selecting only beads having cell binding in both rounds.
(§3) Libraries of peptides listed in beads (50,000 to 100,000 beads were used at one time) was mixed with a human breast cancer cell line (MDA-MB-231). […] Then, these three peptides were labeled with fluorescein isothiocyanate (FITC) and the ability thereof to bind to MDA-MB-231 cells was determined.
Experimental for MDA-MB-231: as §2, §3
Experimental for in vivo: as §1

Take `Cc1cccc(C)c1OCC(=O)N[C@@H](Cc1ccccc1)[C@@H](O)C[C@H](Cc1ccccc1)NC(=O)[C@H](C(C)C)N1CCCNC1=O` [Lopinavir, lopinavir]: in the data set “in vitro”, the CC50 at 24 h is over 50 µM. The compound further had a half-inhibitory concentration (IC50) with SARS-COV-2 of 15.5 µM.
`CCN(CC)CCCC(C)Nc1ccnc2cc(Cl)ccc12` (stereo not drawn) [Chloroquine, chloroquine] displayed an IC50 in the data set with SARS-COV-2 of 8.25 µM.
In “in vitro”, `CCC(CC)COC(=O)[C@H](C)N[P@](=O)(OC[C@H]1O[C@@](C#N)(c2ccc3c(N)ncnn23)[C@H](O)[C@@H]1O)Oc1ccccc1` [Remdesivir, remdesivir] yielded a CC50 of over 50 µM. Further, inhibition in the data set on SARS-COV-2 was half-maximal at 10.9 µM (IC50).
In the case of AVARARRRR (Synthetic construct AGM-332), in the data set with MDA-MB-231, the “binding to breast cancer cell line MDA-MB-231” value was “strong, specific, and preferential binding”. Moreover, the “binding to normal cell lines MCF-10A and CCD-18Co” value in the data set with MCF-10A, CCD-18Co was “relatively non-specific and bound”.
For the compound `CSCC[C@H](NC(=O)[C@H](C)NC(=O)CNC(=O)[C@H](Cc1c[nH]cn1)NC(=O)[C@@H](N)CCCNC(=N)N)C(=O)N[C@H](C(=O)N[C@@H](Cc1ccc(O)cc1)C(=O)N[C@@H](CC(C)C)C(=O)N[C@@H](CCCCN)C(=O)NCCOCCOCCOCCOCCOCCOCCC(=O)NCCCC[C@H](NC(=O)CCOCCOCCOCCOCCOCCOCCNC(=O)[C@H](CCCCN)NC(=O)[C@H](CC(C)C)NC(=O)[C@H](Cc1ccc(O)cc1)NC(=O)[C@@H](NC(=O)[C@H](CCSC)NC(=O)[C@H](C)NC(=O)CNC(=O)[C@H](Cc1c[nH]cn1)NC(=O)[C@@H](N)CCCNC(=N)N)C(C)C)C(=O)NCCCC[C@H](NC(=O)[C@H](CCCCNC(=O)CCOCCOCCOCCOCCOCCOCCNC(=O)[C@H](CCCCN)NC(=O)[C@H](CC(C)C)NC(=O)[C@H](Cc1ccc(O)cc1)NC(=O)[C@@H](NC(=O)[C@H](CCSC)NC(=O)[C@H](C)NC(=O)CNC(=O)[C@H](Cc1c[nH]cn1)NC(=O)[C@@H](N)CCCNC(=N)N)C(C)C)NC(=O)CCOCCOCCOCCOCCOCCOCCNC(=O)[C@H](CCCCN)NC(=O)[C@H](CC(C)C)NC(=O)[C@H](Cc1ccc(O)cc1)NC(=O)[C@@H](NC(=O)[C@H](CCSC)NC(=O)[C@H](C)NC(=O)CNC(=O)[C@H](Cc1c[nH]cn1)NC(=O)[C@@H](N)CCCNC(=N)N)C(C)C)C(=O)N[C@@H](CS)C(=O)O)C(C)C` [AGM-330t], in “in vivo” (intravenous), the peak level (Cmax) was 1880 ± 670 ng/mL, the Tmax is 0.167 h and the half-life is 9.43 ± 1.21 h. The same compound showed an AUC in “in vivo” (iv) of 21400 ± 810 ng·h/mL. The “in vivo stability compared with monomeric or dimeric peptides” value in data set [1] is given as “higher stability”.
